This is an account of results in patent US20050070006A1 (priority 2001, published 2005).

Converted amounts (≈) assume the structure as drawn. Where two headings read alike, the source gives them in different places.

For data set [1], the system named is strain 4S (frameshift mutation). The settings on record: Bromocresol Red colour change.
The subject of data set [2] is strain 6S (frameshift mutation). As to the kind of experiment: Long-term mutation test (selection phase 16 hours), luminometric β-galactosidase reporter. The following applies: selection 16 hours.
For data set [3] the following is noted: antibiotic activity; Olivia et al. 1992; cited from earlier work.
Data set [4] deals with strain 4S (frameshift mutation). As to the kind of experiment: Long-term mutation test (selection phase 16 hours), luminometric β-galactosidase reporter. The following applies: selection 16 hours.

With `COc1ccc2nc3cc(Cl)ccc3c(NCCCNCCCl)c2c1.Cl.Cl` [ICR-191, 2-Methoxy-6-chloro-9-(3-(2-chloro-ethyl)aminopropylamino)acridine, dihydrochloride], the “% of positive wells” value in data set [1] (0.03 μg/ml) was determined as 0%; in data set [1] (0.06 μg/ml), 6.3%; in data set [1] (0.12 μg/ml), 12.5%; in data set [1] (0.25 μg/ml), 25%; in data set [1] (0.5 μg/ml), 37.5%; in data set [1] (1 μg/ml), 75%. Moreover, the “Mutation induction (factor)” value in data set [1] (0.03 μg/ml) came out at 0 factor; in data set [1] (0.06 μg/ml), 2 factor; in data set [1] (0.12 μg/ml), 4 factor; in data set [1] (0.25 μg/ml) it was 8.1 factor; in data set [1] (0.5 μg/ml) it was 12.1 factor; in data set [1] (1 μg/ml), 24.2 factor. The “Mutation induction (factor)” value is recorded as 28 factor in data set [2] (0.016 μg/ml); 57 factor in data set [2] (0.031 μg/ml); 86 factor in data set [2] (0.0625 μg/ml); 127 factor in data set [2] (0.125 μg/ml); 162 factor in data set [2] (0.25 μg/ml); 235 factor in data set [2] (0.5 μg/ml). Further, the “Mutation induction (factor)” value in data set [2] (1 μg/ml) was 264 factor. The “Relative luminescence units (rlu)” value in data set [2] (0.016 μg/ml) is recorded as 151340 rlu; in data set [2] (0.031 μg/ml) it was 307828 rlu; in data set [2] (0.0625 μg/ml) it was 466003 rlu; in data set [2] (0.125 μg/ml), 685471 rlu; in data set [2] (0.25 μg/ml) it was 880208 rlu; in data set [2] (0.5 μg/ml), 1274327 rlu. The “Relative luminescence units (rlu)” value in data set [2] (1 μg/ml) is 1432620 rlu.
Take `CN(C)[C@@H]1C(=O)C(C(N)=O)=C(O)[C@@]2(O)C(=O)C3=C(O)c4c(O)cccc4[C@@](C)(O)[C@H]3C[C@@H]12` [tetracyclin]: the “MIC (minimum inhibition concentration) value” in data set [3] is 0.5 µg/mL (≈ 1.13 µM).
On to Nitrofluorene, for which the “Mutation induction (factor)” value in data set [4] (0.031 μg/ml) is recorded as 39 factor; in data set [4] (0.0625 μg/ml), 90 factor; in data set [4] (0.125 μg/ml), 169 factor; in data set [4] (0.25 μg/ml) it was 321 factor; in data set [4] (0.5 μg/ml), 682 factor; in data set [4] (1 μg/ml) it was 630 factor. For the same compound, the “Relative luminescence units (rlu)” value in data set [4] (0.031 μg/ml) worked out at 210703 rlu; in data set [4] (0.0625 μg/ml), 480532 rlu; in data set [4] (0.125 μg/ml), 900022 rlu; in data set [4] (0.25 μg/ml), 1713083 rlu; in data set [4] (0.5 μg/ml), 3643737 rlu; in data set [4] (1 μg/ml), 3360982 rlu.
Nitropyrene: the “Mutation induction (factor)” value in data set [4] (0.031 μg/ml) is on record as 0.8 factor; in data set [4] (0.0625 μg/ml), 19.8 factor; in data set [4] (0.125 μg/ml), 41 factor; in data set [4] (0.25 μg/ml), 65 factor; in data set [4] (0.5 μg/ml) it was 177 factor; in data set [4] (1 μg/ml) it was 103 factor. Also, the “Relative luminescence units (rlu)” value in data set [4] (0.031 μg/ml) is listed as 4125 rlu; in data set [4] (0.0625 μg/ml) it was 105949 rlu; in data set [4] (0.125 μg/ml), 219636 rlu; in data set [4] (0.25 μg/ml), 348410 rlu; in data set [4] (0.5 μg/ml), 950853 rlu; in data set [4] (1 μg/ml), 552390 rlu.
